Key:
[1] = MTT cytotoxicity assay on MT-2 cells; conditions: human
Description: (§1) The permanent human T-cell lines MT-4 and MT-2 were maintained at 37°C in a humidified atmosphere containing 5% CO2 in RPMI 1640 (Sigma-Aldrich) medium supplemented with 10% heat-inactivated fetal bovine serum (Sigma-Aldrich), 100 IU/ml penicillin and 100 μg/ml streptomycin (Sigma-Aldrich). HIV-1 (HTLV-IIIB) was obtained from the culture supernatant of MT-4/HTLV-IIIB cells. The 50% HIV-1 tissue culture infectious dose (TCID50) on MT-4 cells was determined by virus yield assay.
(§2) To determine the in vitro cytotoxic effect of the compounds, viability of the treated and untreated cells was measured by a colorimetric assay as described earlier. Briefly, MT-4 and MT-2 cells were seeded into a 96-well plate at a density of 15,000 cells/well in the presence of different concentrations of the compounds dissolved in dimethyl sulfoxide (DMSO). […] After 4 days of incubation, cell cultures were analyzed using MTT cell viability assay (Sigma-Aldrich) to monitor the reduction of 3-(4,5-dimethylthiazol-2-yl)-2,5-diphenyl-tetrazolium bromide (MTT) to a blue formazan product by metabolically active cells. To initiate the cell viability assay, 20 μl MTT (5 mg/mL dissolved in PBS) was added to each well. After 4 h incubation cell supernatant was removed and 100 μl DMSO per well was added. The absorbance was measured at 550 nm on a microplate reader after mixing the contents thoroughly. The cytotoxicity tests were implemented in two biological replicates.

[2] = MTT cytotoxicity assay on MT-4 cells; conditions: human
Description: as §1, §2

HIV-1 (HTLV-IIIB) = experiment: Cell-based antiviral assay, HIV-1 p24 core protein ELISA in supernatants of infected MT-4 and MT-2 cells; conditions: nontoxic concentrations (2.1 μM), 5 days of incubation
Description: MT-4 and MT-2 cells at a density of 15,000 cells/well were incubated in 96-well plates in the presence of compounds at 37°C in 5% CO2 for 5 days. Simultaneously, cells were exposed to HIV-1 (2,32∗10^2 TCID50/ml). Untreated and infected or AZT (3′-azido-3′-deoxythymidine)-treated cells were used as controls. After the incubation period, diluted culture supernatants were analyzed for HIV production by determining the amount of viral core protein using a p24 enzyme-linked immunosorbent assay (ELISA) kit (Fujirebio) according to manufacturer's instructions. The results were expressed relative to the control of untreated HIV-1 infected cells. The experiment was performed in four biological replicates. Statistical analysis was performed by one-way ANOVA followed by Bonferroni's post hoc test.

[3] = biological target: T1, recombinant HIV-1 integrase (IN) (Human immunodeficiency virus type 1 group M subtype B, UniProt P04585); experiment: HIV-1 integrase inhibition, IN assay kit; type: biochemical; conditions: 2.15 μM concentration
T1 construct: activity of recombinant HIV-1 reverse transcriptase (RT) and integrase (IN); purchased Express Biotech International
Description: (§3) Inhibitory effects of compounds on the HIV-1 reverse transcriptase and integrase activity were measured by a colorimetric RT kit (Roche Diagnostics) and IN assay kit (Express Biotech International) according to the instructions of the manufacturer. Reverse transcriptase assay measures the amount of labeled nucleotides incorporated during the transcription process of RNA. Nevirapine, a nonnucleoside RT inhibitor, was used as a positive control in the RT reaction. HIV-1 integrase assay measures the integrase activity after 3′-end processing of the HIV-1 LTR donor substrate DNA and catalyzing the strand-transfer recombination reaction to integrate the donor substrate DNA into the target substrate DNA. Sodium azide was applied as a positive control compound in the experiments measuring the integrase activity. The RT and IN inhibition assays were performed in two biological replicates. Statistical analysis was performed by one-way ANOVA followed by Bonferroni's post hoc test, and a planned comparison by unpaired T-test was also performed (see Figure 3(b)).

[4] = biological target: T2, recombinant HIV-1 reverse transcriptase (RT) (Human immunodeficiency virus type 1 group M subtype B, UniProt P04585); experiment: HIV-1 reverse transcriptase inhibition, colorimetric RT kit; type: biochemical; conditions: 21.5 μM concentration
T2 construct: activity of recombinant HIV-1 reverse transcriptase (RT) and integrase (IN); purchased Roche Diagnostics
Description: as §3

HIV-1 [5] = tested on: HIV-1; set-up: method as in PMID 25546350; conditions: C8166 cells; cited from earlier work
HIV-1 BaL, HIV-1 MN = tested on: HIV-1 BaL, HIV-1 MN; set-up: method as in PMID 25546350; conditions: TZM-bl cell plus HIV-1 BaL and H9, and PBMC plus HIV-1 MN; read-out: IC50 antiviral effect; cited from earlier work
HIV-1 [6] = tested on: HIV-1; set-up: method as in PMID 25546350; conditions: C8166 cells; cited from earlier work; remark: listed apart in the source
HIV [7] = tested on: HIV; set-up: method as in doi:10.3844/ajidsp.2009.135.141; conditions: normal peripheral blood mononuclear cells (PBMC); cited from earlier work
[8] = tested on: IN (strand transfer reaction); set-up: method as in PMID 12213478; conditions: in vitro; cited from earlier work
HIV [9] = tested on: HIV; set-up: method as in PMID 12213478; conditions: MT-2 cells; read-out: IC50 HIV infection of MT-2 cells; cited from earlier work
MT-2 cells = conditions: at concentrations as high as 800 μM; cited from earlier work
IN = conditions: cited from earlier work

O=c1c(O)c(-c2ccc(O)c(O)c2)oc2c(O)c(OC3OC(CO)C(O)C(O)C3O)cc(O)c12 (stereo not drawn) [Gossypitrin (2), gossypitrin]
CC50 at 4 days ([1]; MT-2 cells): 113 µM | CC50 at 4 days ([2]; MT-4 cells): 101 µM | Effect on HIV-1 replication (p24 core protein levels) (HIV-1 (HTLV-IIIB)): ineffective

O=c1c(O)c(-c2ccc(O)cc2)oc2c(O)c(OC3OC(CO)C(O)C(O)C3O)cc(O)c12 (stereo not drawn) [Herbacitrin (1), herbacitrin]
Inhibition of HIV-1 integrase activity ([3]; listed as Herbacitrin): active | Inhibition of HIV-1 integrase activity ([3]; listed as herbacitrin): inhibited | CC50 at 4 days ([1]; MT-2 cells): 63.6 µM | CC50 at 4 days ([2]; MT-4 cells): 27.8 µM | Effect on HIV-1 replication (p24 core protein levels) (HIV-1 (HTLV-IIIB)): reduced HIV-1 replication | Inhibition of HIV-1 reverse transcriptase activity ([4]; listed as Herbacitrin): inhibit | Inhibition of HIV-1 reverse transcriptase activity ([4]; listed as herbacitrin): significantly inhibited

O=c1c(O)c(-c2ccc(O)c(O)c2)oc2cc(O)cc(O)c12 [Quercetin (3), quercetin]
EC50 protection of HIV-1 induced cytopathic effects (HIV-1 [5]): 23.2 µg/mL | CC50 at 4 days [1]: 157 µM | CC50 at 4 days [2]: 108 µM | Effect on HIV-1 replication (p24 core protein levels) (HIV-1 (HTLV-IIIB)): reduced HIV-1 replication | IC50 (HIV-1 BaL, HIV-1 MN): 29.8 to 89 µM | EC50 inhibition of syncytium formation (HIV-1 [6]): 42.55 µg/mL | Anti-HIV activity (HIV replication, virus infectivity) (HIV [7]): significant anti-HIV activity

O=c1cc(-c2ccc(O)c(O)c2)oc2cc(O[C@@H]3O[C@H](CO)[C@@H](O)[C@H](O)[C@H]3OS(=O)(=O)O)cc(O)c12 [Thalassiolin A]
Inhibitory concentration against the strand transfer reaction [8]: submicromolar | IC50 (HIV [9]): ~30 µM | Cytotoxicity (MT-2 cells): no cytotoxicity

O=c1c(O)c(-c2ccc(O)c(O)c2)oc2cc(O)c(O)c(O)c12 [quercetagetin, quercetagetin (6-hydroxyquercetin)]
Inhibition of viral cleavage and integration (IN): strong inhibitor

Source: PMC6378053, “Flavonol 7-O-Glucoside Herbacitrin Inhibits HIV-1 Replication through Simultaneous Integrase and Reverse Transcriptase Inhibition” (Evidence-based Complementary and Alternative Medicine : eCAM, 2019)
